Assay results published in patent publication US8859559B2, “Substituted pyrazines and their use in the treatment of disease” (Boehringer Ingelheim International GmbH, priority 2011, dated 2014).

Biological target: T1, ENaC (Epithelial Sodium Channel) (Mus musculus, UniProt Q61180+Q9WU38+Q9WU39)
T1 construct: Mouse kidney M-1 cells were cultivated in DMEM; endogenous in cells; host or cells: Mouse kidney M-1 cells (dexamethasone-treated, on transwell filters)
T1 sequence (Q61180 1-699): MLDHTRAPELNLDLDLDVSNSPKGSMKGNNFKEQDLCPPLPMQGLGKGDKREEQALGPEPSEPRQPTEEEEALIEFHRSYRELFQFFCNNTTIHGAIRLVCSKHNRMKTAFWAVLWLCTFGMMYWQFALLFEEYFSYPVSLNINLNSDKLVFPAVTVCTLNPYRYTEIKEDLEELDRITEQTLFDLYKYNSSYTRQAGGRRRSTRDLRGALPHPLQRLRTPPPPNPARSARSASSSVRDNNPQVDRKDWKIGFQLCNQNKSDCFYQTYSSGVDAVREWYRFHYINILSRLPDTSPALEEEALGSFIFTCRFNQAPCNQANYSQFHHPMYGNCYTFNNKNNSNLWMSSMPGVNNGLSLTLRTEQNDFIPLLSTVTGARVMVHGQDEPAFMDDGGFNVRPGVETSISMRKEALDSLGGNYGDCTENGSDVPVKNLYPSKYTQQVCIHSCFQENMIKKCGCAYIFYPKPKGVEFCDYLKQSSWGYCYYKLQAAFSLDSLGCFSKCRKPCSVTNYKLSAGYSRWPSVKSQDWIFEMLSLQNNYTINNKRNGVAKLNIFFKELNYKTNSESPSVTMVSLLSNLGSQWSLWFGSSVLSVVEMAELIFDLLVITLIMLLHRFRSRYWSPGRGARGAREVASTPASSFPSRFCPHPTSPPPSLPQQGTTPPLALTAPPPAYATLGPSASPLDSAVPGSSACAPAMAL
T1 sequence (Q9WU38 1-638): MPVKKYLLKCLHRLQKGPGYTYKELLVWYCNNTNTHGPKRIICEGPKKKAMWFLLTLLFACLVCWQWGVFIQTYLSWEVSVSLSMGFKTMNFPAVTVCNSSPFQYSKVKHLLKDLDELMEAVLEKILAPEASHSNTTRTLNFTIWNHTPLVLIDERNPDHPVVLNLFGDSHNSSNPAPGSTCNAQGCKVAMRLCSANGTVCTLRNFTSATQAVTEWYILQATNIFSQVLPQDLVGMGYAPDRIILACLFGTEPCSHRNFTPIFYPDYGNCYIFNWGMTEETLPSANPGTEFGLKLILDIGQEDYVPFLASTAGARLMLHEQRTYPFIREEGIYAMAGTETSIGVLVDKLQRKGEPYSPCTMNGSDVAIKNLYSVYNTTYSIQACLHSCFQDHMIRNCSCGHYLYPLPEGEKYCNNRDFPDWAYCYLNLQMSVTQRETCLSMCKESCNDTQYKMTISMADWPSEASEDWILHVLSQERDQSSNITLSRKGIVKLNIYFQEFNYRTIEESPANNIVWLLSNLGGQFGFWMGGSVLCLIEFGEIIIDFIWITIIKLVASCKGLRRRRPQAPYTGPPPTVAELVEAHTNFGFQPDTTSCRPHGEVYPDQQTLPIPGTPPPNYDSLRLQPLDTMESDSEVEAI
T1 sequence (Q9WU39 1-655): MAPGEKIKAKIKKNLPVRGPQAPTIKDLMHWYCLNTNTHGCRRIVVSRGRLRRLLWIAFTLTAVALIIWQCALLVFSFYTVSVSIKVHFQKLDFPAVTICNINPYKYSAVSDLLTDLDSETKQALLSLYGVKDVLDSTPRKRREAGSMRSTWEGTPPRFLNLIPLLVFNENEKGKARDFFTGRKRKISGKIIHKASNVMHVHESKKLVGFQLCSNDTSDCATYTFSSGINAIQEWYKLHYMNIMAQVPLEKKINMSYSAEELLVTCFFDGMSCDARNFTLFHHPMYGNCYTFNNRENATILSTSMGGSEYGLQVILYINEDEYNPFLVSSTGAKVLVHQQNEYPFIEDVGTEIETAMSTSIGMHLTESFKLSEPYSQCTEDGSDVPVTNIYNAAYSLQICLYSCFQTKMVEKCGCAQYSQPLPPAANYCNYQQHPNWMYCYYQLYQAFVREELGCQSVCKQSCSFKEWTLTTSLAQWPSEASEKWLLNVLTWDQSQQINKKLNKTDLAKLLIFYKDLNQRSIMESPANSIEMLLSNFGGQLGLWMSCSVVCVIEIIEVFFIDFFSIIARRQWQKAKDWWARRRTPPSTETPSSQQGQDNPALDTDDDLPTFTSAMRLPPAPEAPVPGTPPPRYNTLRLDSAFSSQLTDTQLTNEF
Test: Ussing chamber: inhibition of amiloride sensitive short circuit current (I_sc) in M-1 cells
Type: cell-based
Details: mouse kidney M-1 cells
Summary of the method: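 Mouse kidney M-1 cells grown 10-12 days on transwell filters with 5 μM dexamethasone; I_sc recorded under voltage clamp at 37° C in Caco-2 transport buffer. Compounds added apically at 3 μM or 1-3-10 μM; 3 μM apical amiloride added at the end defines the amiloride-sensitive current; results as % inhibition of amiloride effect or IC50.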

SMILES	IC50 [nM]
NC(=NC(=O)c1nc(Cl)c(N)nc1N)NC1CCN(Cc2ccc(-c3cn(CCOCCOCCOCCNC(=O)c4cc(OCCOCCOCCO)cc(OCCOCCOCCO)c4)nn3)cc2)CC1 [Example 5.7]	45
NC(=NC(=O)c1nc(Cl)c(N)nc1N)NC1CCN(Cc2ccc(-n3cc(CCC(=O)N(CCO)CCO)nn3)cc2)CC1 [Example 3.12]	5
CC(C)(C)OC(=O)c1ccc(CN2CCC[C@H](NC(N)=NC(=O)c3nc(Cl)c(N)nc3N)C2)cc1 [Example 1.59]	227
NC(=NC(=O)c1nc(Cl)c(N)nc1N)NC1CCN(Cc2ccc(C(=O)NCCOCCOCCOCCn3cc(CN4CCNCC4)nn3)cc2)CC1 [Example 3.10]	23
COCCOc1ccc(CCc2ccc(CN3CCC(NC(N)=NC(=O)c4nc(Cl)c(N)nc4N)CC3)cc2)nn1 [Example 1.58]	7
NC(=NC(=O)c1nc(Cl)c(N)nc1N)NC1CCN(Cc2cccc(-c3cn(CCOCCOCCOCCNCCOCCOCCO)nn3)c2)CC1 [Example 5.11]	7
NC(=NC(=O)c1nc(Cl)c(N)nc1N)NC1CCN(Cc2ccc(CC(=O)O)cc2)CC1 [Example 8.13]	44
NC(=NC(=O)c1nc(Cl)c(N)nc1N)NC1CCN(Cc2cccc(-c3cn(CCOCCOCCOCCNC(=O)c4cc(OCCOCCOCCO)cc(OCCOCCOCCO)c4)nn3)c2)CC1 [Example 5.10]	31
[N-]=[N+]=NCCOCCOCCOCCOc1ccc(CN2CCC(NC(N)=NC(=O)c3nc(Cl)c(N)nc3N)CC2)cc1 [Example 1.18]	7
CC(C)(C)[Si](C)(C)OCCN(CCO[Si](C)(C)C(C)(C)C)C(=O)c1ccc(=O)n(CCc2cn(-c3ccc(CN4CCC(NC(N)=NC(=O)c5nc(Cl)c(N)nc5N)CC4)cc3)nn2)c1 [Example 3.17]	3
NC(=NC(=O)c1nc(Cl)c(N)nc1N)NC1CCN(Cc2cccc(OCC(=O)O)c2)CC1 [Example 8.15]	37
CN(Cc1cn(CCc2ccc(CN3CCC(NC(N)=NC(=O)c4nc(Cl)c(N)nc4N)CC3)cc2)nn1)C(=O)CCNC(=O)OC(C)(C)C [Example 3.5]	7
COc1ccc(CCN2CCC(NC(N)=NC(=O)c3nc(Cl)c(N)nc3N)CC2)cc1 [Example 1.19]	12
COc1ccc(C(=O)CN2CCC(NC(N)=NC(=O)c3nc(Cl)c(N)nc3N)CC2)cc1 [Example 1.20]	11
[N-]=[N+]=NCCOCCOCCOCCn1cc(-c2ccc(CN3CCC(NC(N)=NC(=O)c4nc(Cl)c(N)nc4N)CC3)cc2)nn1 [Example 3.32]	25
COC(=O)c1cccc(CN2CCC(NC(N)=NC(=O)c3nc(Cl)c(N)nc3N)CC2)c1 [Example 1.36]	3
COC(=O)Cc1ccc(CN2CCC(NC(N)=NC(=O)c3nc(Cl)c(N)nc3N)CC2)cc1 [Example 1.38]	8
COC(=O)c1ccc(CN2CCC(N/C(N)=N/C(=O)c3nc(Cl)c(N)nc3N)CC2)cc1 [Example 1.29]	2
NC(=NC(=O)c1nc(Cl)c(N)nc1N)NC1CCN(Cc2ccc(OCc3cn(CCOCCOCCOCCOCCOCCOC(c4ccccc4)(c4ccccc4)c4ccccc4)nn3)cc2)CC1 [Example 3.23]	13
N/C(=N\C(=O)c1nc(Cl)c(N)nc1N)NC1CCN(Cc2ccc(CCn3cc(CCC(=O)N(CCO)CCO)nn3)cc2)CC1 [Example 3.1]	29
CCOC(=O)c1ccc(=O)n(-c2ccc(CN3CCC(NC(N)=NC(=O)c4nc(Cl)c(N)nc4N)CC3)cc2)c1 [Example 1.16]	17
NC(=NC(=O)c1nc(Cl)c(N)nc1N)NC1CCN(Cc2ccc(CCn3cc(COCCO)nn3)cc2)CC1 [Example 3.2]	10
N/C(=N\C(=O)c1nc(Cl)c(N)nc1N)NC1CCN(Cc2ccc(C(=O)O)cc2)CC1 [Example 1.51]	23
CCOP(=O)(OCC)c1ccc(CN2CCC(NC(N)=NC(=O)c3nc(Cl)c(N)nc3N)CC2)cc1 [Example 1.13]	5
CN(C)Cc1cn(-c2ccc(CN3CCC(NC(N)=NC(=O)c4nc(Cl)c(N)nc4N)CC3)cc2)nn1 [Example 3.15]	2
NC(=NC(=O)c1nc(Cl)c(N)nc1N)NC1CCN(Cc2ccc(-n3cc(COCC(CO)(CO)CO)nn3)cc2)CC1 [Example 3.19]	8
NC(=NC(=O)c1nc(Cl)c(N)nc1N)NC1CCN(Cc2ccc(-n3cc(C(=O)O)ccc3=O)cc2)CC1 [Example 8.4]	210
